According to patent US7326697B2, “Methods for increasing the therapeutic response to electroconvulsive therapy” (Corcept Therapeutics, Inc., priority 2002, dated 2008):

Legend:
[1] = in one study; cited from earlier work
[2] = Case: mental illness treated with mifepristone therapy followed by bilateral ECT; type: in vivo; conditions: one patient
Procedure: The patient subsequently underwent four treatments of bilateral ECT while continuing mifepristone therapy. […] During each treatment session, the patient received between 60 and 100 mg of methohexital and between 60 and 80 mg of succinylcholine.
For the first ECT treatment, the patient was delivered a stimulus using the Thymatron ECT device at 35% with […] eeg seizure duration and 115 second motor duration. After the first treatment, the patient was better able to organize their thoughts and was able to engage in more appropriate conversations. The second treatment was also at 35%, but the eeg duration decreased to 61 seconds and no motor seizure was detected. Consequently on the third treatment, the energy setting was increased to 40% with 115 second eeg duration and 91 second motor duration. After the third treatment, the patient had fewer somatic delusions, was able to comprehend written text and was easier to engage in conversation.

For `CC#C[C@]1(O)CC[C@H]2[C@@H]3CCC4=CC(=O)CCC4=C3[C@@H](c3ccc(N(C)C)cc3)C[C@@]21C` [mifepristone, (11β, 17β)-11-[4-(dimethylamino)phenyl]-17-hydroxy-17-(1-propynyl)estra-4,9-dien-3-one], the “fraction of the daily dose excreted in the urine” value [1] is listed as “less than 0.5%”, the “clinical response to ECT while continuing mifepristone therapy” value ([2]; after four treatments of bilateral ECT, before the fifth) is listed as “dramatically improved” and the “clinical response to mifepristone therapy alone” value ([2]; before ECT) is listed as “not significantly improving”. For the same compound, the “side-effects of ECT with continued mifepristone therapy” value ([2]; four treatments of bilateral ECT) was “some impairment in short term memory but otherwise had no side-effects”.
